Patent publication US20040229785A1, “Screening methods to identify treatments for autoimmune disease” (priority 2002, published 2004)
“And” between values parts separate entries of the source, which are not always exact repeats. Equal entries are not always repeated.

Tests used:
B6 (C57BL/6) splenocytes = experiment: Annexin V/PI flow cytometry of cultured splenocytes with and without TNF-α; type: cell-based, mouse
Procedure: (§1) Flow cytometry can be performed using a Facscalibur flow cytometer (BD Biosciences, San Jose, Calif.). Samples were incubated for 18-24 hours in the absence or presence of TNF-α (20-50 ng/mL), after which apoptotis can be determined by direct detection using FITC-conjugated annexin V and Propidium Iodide (PI) from R&D Systems (TACS Annexin V-FITC Apoptosis Detection Kit; Minneapolis, Minn.). Early apoptotic cells were defined as positive for annexin V only, whereas late apoptotic cells were defined as being positive for both PI and annexin V.
(§2) In order to obtain high viability for those assays using splenocytes, gentle treatment throughout the isolation procedure is important. Optimized results were obtained as follows: a mouse is sacrificed by cervical dislocation and the spleen removed via an abdominal incision. The spleen is then gently inflated with several mLs of RPMI/10% FBS using a 22 gauge needle. Any fluid leaking out of the spleen is collected as it contains splenocytes. A small opening is created on one end of the spleen and the splenic tissue expelled through this opening with a “scraping” motion using blunt tipped forceps. The resulting clumps of tissue are homogenized by repeated gentle pipetting. The crude splenocyte preparation is then filtered through a 40 micron mesh filter.
(§3) The spleen contains a variety of different immune cells. These can be distinguished further into T-cells (mostly CD4 and CD8) and non-T-cells (mostly B-cells and macrophages). Magnetic separation methods were used to sort the splenocytes into T-cell and non-T-cell fractions. For the isolation of T-cells, Miltenyi Biotec's Pan T magnetic bead cocktail were used. This cocktail contains antibodies against CD11b, CD45R, DX5, and Ter-119. As a result, all Non-T cells, i.e. B cells, NK cells, dendritic cells, macrophages, granulocytes, and erythroid cells; are depleted from the sample, leaving only T-cells. For the isolation of non-T-cells, a mixture of magnetic beads directed against CD90 and Ter-119 were used. This depletes all T-cells and erythroid cells, leaving only the non-T cells.
(§4) The difference in sensitivity between B6 and NOD splenocytes to TNF-α was then examined. B6 and NOD splenocytes were plated out in U-bottom shaped 96 well plates at a density of 25,000 cells per well in 100 μL of medium, with and without 50 ng/mL TNF-α added. The cells were cultured for 24 hrs, stained with Annexin V and PI, and analyzed by flow cytometry (FIG. 10).
(§5) After culture at 37° C. for 26 hours, the cell death of NOD vs. B6 T cells and NOD vs. B6 non T cells was quantified by AnnexinV and PI (FIG. 11). Late death is shown for cells obtained from a single NOD and a single B6 mouse.
(§6) Samples obtained from a single NOD and a single B6 mouse were also examined for cell death by PI staining alone (FIG. 12) after culturing at 32° C. for 18 hours.
(§7) Therefore, Annexin V binding/PI uptake measurements were used to measure specific cellular lineages in the human PBLs based on fluorescence activated cell scanning (FACS) analysis. PBLs were stained with anti-CD3, anti-Annexin V, and anti-PI antibodies immediately after isolation. After 12 or 24 hours in culture in the presence or absence of TNF-α, cells were analyzed by FACS for Annexin V/PI binding to defined lineages. Over the course of these studies several important differences emerged in the behavior of human PBLs compared to NOD splenocytes (Table 1). First, human PBL isolates contained a large amount of cell fragments and debris, both at baseline and after culture. This finding was not evident in the NOD splenocyte preparations. Comparing the responses of non-diabetic C57BL/6 murine splenocytes to non-diabetic humans PBLs, the viability of C57BL/6 splenocytes remained constant during a 24 hour period of culture in vitro, whereas a progressive increase in spontaneous cell death of human PBLs was regularly observed over this interval. […]

NOD splenocytes = experiment: as above; type: cell-based, mouse; conditions: for TNF sensitivity of T cell subpopulation: FIG. 13
Procedure: as §1, §2, §3, §4, §5, §6, §7

[1] = system: PBLs from Type I diabetics; experiment: FACS Annexin V binding/PI uptake in human PBLs cultured with or without TNF-α; type: cell-based; design: increase in Annexin V binding to CD3+ PBLs in response to TNF-α: dose or concentration left out as unconfirmed
Procedure: Therefore, Annexin V binding/PI uptake measurements were used to measure specific cellular lineages in the human PBLs based on fluorescence activated cell scanning (FACS) analysis. PBLs were stained with anti-CD3, anti-Annexin V, and anti-PI antibodies immediately after isolation. After 12 or 24 hours in culture in the presence or absence of TNF-α, cells were analyzed by FACS for Annexin V/PI binding to defined lineages. Over the course of these studies several important differences emerged in the behavior of human PBLs compared to NOD splenocytes (Table 1). First, human PBL isolates contained a large amount of cell fragments and debris, both at baseline and after culture. This finding was not evident in the NOD splenocyte preparations. Comparing the responses of non-diabetic C57BL/6 murine splenocytes to non-diabetic humans PBLs, the viability of C57BL/6 splenocytes remained constant during a 24 hour period of culture in vitro, whereas a progressive increase in spontaneous cell death of human PBLs was regularly observed over this interval. This differential response of cell viability to culture in vitro may possibly reflect an intrinsic fragility of human PBLs and/or the greater rigors of cell isolation required for purification of human PBLs as compared with murine splenocytes. […] Another difference between PBLs from human Type I diabetics and NOD splenocytes is that the evolution of TNF-α-induced apoptosis in NOD splenocytes occurs with a predictable time course that is much more rapid than that seen in PBLs from Type I diabetics. […] By 24 hours, there was little further increase in the fraction of cells binding Annexin V. However, nuclear binding of PI to NOD splenocytes had increased substantially reflecting a further progression of the apoptotic program. By contrast, cell death in response to TNF-α in human CD3 positive-PBLs, when evident, evolved much more slowly. For example, increased Annexin V binding was rarely seen after 12 hours and at 24 hours, increased Annexin V uptake, when present, was generally not accompanied by increased PI uptake.
The results generated using CD3, CD19, and CD11b positive PBLs isolated from 33 Type I diabetics and from control subjects (see Table 1) support the following conclusions. […] In these studies, PBLs were processed in parallel from a Type I diabetic and an age/sex matched control non-diabetic subject. Immediately after isolation, the PBLs were incubated with Annexin V and propidium iodide and subjected to FACS analysis (left column of flow charts; “before incubation”). […] The cells were then incubated in the absence (center panels) or presence (right panels) of TNF-α (20 ng/mL). After 12 hours, these cells were stained with Annexin V and PI and analyzed by FACS.

[2] = system: PBLs from non-diabetic control subjects; experiment: as above; type: cell-based
Procedure: as §7
The results generated using CD3, CD19, and CD11b positive PBLs isolated from 33 Type I diabetics and from control subjects (see Table 1) support the following conclusions. […] After 12 hours, these cells were stained with Annexin V and PI and analyzed by FACS.

[3] = system: PBLs from Type I diabetics; experiment: Trypan Blue uptake by human PBLs incubated with TNF-α; type: cell-based; conditions: TNF-α 20 ng/mL, 24 hours, FIG. 14A
Procedure: (§8) In an initial set of assays for characterizing the response of PBLs from human diabetics and control subjects to incubation with TNF-α or other candidate compounds in vitro, uptake of the dye Trypan Blue, a relatively nonspecific measure of cell death, was used. […] However, there appeared to be an inverse correlation between the age-at-onset and the extent of the TNF-α induced-increase in Trypan Blue uptake by the PBLs (FIG. 14C).

[4] = system: PBLs from non-diabetic subjects; experiment: as above; type: cell-based; conditions: TNF-α 20 ng/mL, 24 hours, FIG. 14B
Procedure: as §8

[5] = system: CD3+ T cells from a non-diabetic control subject; type: cell-based, human
Excerpt: (§9) II. Remove red blood cells and collect lymphocyte subsets:
(§10) 11. Acquire timed and/or absolute count/volume data
(§11) The automated method described herein has also been used for the assay of cell viability in a human patient. Blood samples were obtained from a patient with Type I diabetes and from a non-diabetic control subject. During the assay procedure, a CD3^+ T cell subset was isolated from each (Step 11.12 from the protocol). The cells were then contacted with TNF-α and cell viability was measured and compared to that found in control samples which were not contacted with TNF-α.

[6] = system: CD3+ T cells from a patient with Type I diabetes; type: cell-based, human
Excerpt: as §9, §10, §11

[7] = system: NOD mouse splenocytes (T cells, non-T cells)
Procedure: (§12) Following is an optimized protocol for the automated analysis of cell sensitivity to compounds that induce cell death via apoptosis or necrosis.
(§13) Place on AutoMACS cell sorter for CD-subset separation (magnetic bead separation method or direct RBC lysis)
(§14) Pipette 100 μL cell suspension (25,000 cells) into each 96-well plate well, ×3 for triplicates
(§15) Add 5 μL of reagent (e.g., TNF-α, another induced or cell death, or mixtures containing up to 10 different chemical reagent combinations for the induction of cell death), to each well to be treated, ×3 for triplicates.
(§16) For flow cytometry (analysis), remove 90 μL of re-suspended sample material from each sample well
(§17) Add 90 μl of cell stain solution to each sample flow test tube above to stain cells for identification
(§18) The sensitivity of T cell populations from NOD mice were re-examined using the automated assay described above.
(§19) Non-T cells from NOD and B6 mice were also examined for sensitivity to TNF-α-induced cell death.

[8] = system: B6 mouse splenocytes (T cells, non-T cells)
Procedure: as §12, §13, §14, §15, §16, §17, §18, §19

**Q.** Which results are given for TNF-α?
**A.** cell death of T cells by PI staining alone on exposure to TNF-α (B6 (C57BL/6) splenocytes; B6 T cells, 32° C., 18 hours, single mouse, FIG. 12): do not exhibit TNF induced death; late cell death of T cells by AnnexinV and PI on exposure to TNF-α (B6 (C57BL/6) splenocytes; B6 T cells, 37° C., 26 hours, single mouse, FIG. 11): increased viability; After culture with THF-α (Mean % cell death ± SE) (B6 (C57BL/6) splenocytes; C57BL/6 mouse, overnight early T-cell death, n=7 pairs): 10.2 ± 2.5%; TNF sensitivity of T cell subpopulation (NOD splenocytes; NOD CD4+ T cells): not TNF sensitive; TNF sensitivity of T cell subpopulation (NOD splenocytes; NOD CD8+ T cells): greatest TNF sensitivity; cell death of T cells by PI staining alone on exposure to TNF-α (NOD splenocytes; NOD T cells, 32° C., 18 hours, single mouse, FIG. 12): death of a subpopulation of T cells; late cell death of T cells by AnnexinV and PI on exposure to TNF-α (NOD splenocytes; NOD T cells, 37° C., 26 hours, single mouse, FIG. 11): further accelerated; After culture with THF-α (Mean % cell death ± SE) (NOD splenocytes; NOD mouse, overnight early T-cell death, n=5 pairs): 32.9 ± 3.97%; Annexin V binding (NOD splenocytes; NOD splenocytes, 12-hour incubation with TNF-α): clear increase in Annexin V binding; sensitivity of splenocytes to TNF-α (viability, Annexin V/PI) (NOD splenocytes; NOD vs B6 control splenocytes, 50 ng/mL TNF-α, 24 hrs, 25,000 cells per well, FIG. 10): much more sensitive; staining by Annexin V+PI+ ([1]; PBLs from a diabetic patient vs matched control, TNF-α 20 ng/mL, 12 hours, FIGS. 15A, 15B): increased significantly and selectively; Annexin V staining after culture in the presence of TNF-α ([1]; PBLs of two Type I diabetic subjects (FIGS. 15A, 15B), TNF-α 20 ng/mL, 12 hours, without TNF-α 6.5% and 6.2%): 11.3% and 13.4%; increase in Annexin V binding to CD3+ PBLs in response to TNF-α ([1]; Type I diabetic vs non-diabetic PBLs, 24 hours, TNF-α): greater to a statistically significant extent; After culture with THF-α (Mean % cell death ± SE) ([1]; human IDDM patients, overnight early T-cell death, n=33 pairs): 8.73 ± 0.96%; Annexin V staining after culture in the presence of TNF-α ([2]; PBLs of two parallel non-diabetic control subjects, TNF-α 20 ng/mL, 12 hours, without TNF-α 5.0 and 9.0%): 5.5% and 7.5%; After culture with THF-α (Mean % cell death ± SE) ([2]; human random controls, overnight early T-cell death, n printed 3): 8.02 ± 0.85%; extent of Trypan Blue uptake [3]: further increasing Trypan Blue uptake; extent of Trypan Blue uptake [4]: did not significantly alter; Viability (%) [5]: 96%; Death (%) ([5]; Control subject, CD3+ cells, TNF-α +, without TNF-α 5): 4%; Total Cell Count ([5]; Control subject, CD3+ cells, TNF-α +, without TNF-α 2000): 2200; Viability (%) [6]: 93%; Death (%) ([6]; Type I diabetic, CD3+ cells, TNF-α +, without TNF-α 5): 7%; Total Cell Count ([6]; Type I diabetic, CD3+ cells, TNF-α +, without TNF-α 1900): 1900; change in splenocyte viability on TNF-α treatment (decrease) ([7]; NOD diabetic mice, n=17, T cell populations, FIG. 16): −2.7+/−0.9; viability change of non-T cells, TNF-α treated vs untreated ([7]; NOD mice non-T cells, n=12, FIG. 18B): 4.6%; viability of splenocytes treated with TNF-α [8]: 69.7%; viability change of non-T cells, TNF-α treated vs untreated ([8]; B6 mice non-T cells, n=12, FIG. 18B): 5.0%; change in splenocyte viability on TNF-α treatment (increase) ([8]; control B6 mice, n=17, T cell populations, FIG. 16): 1.0+/−0.5
